Assay results as given in US20050080055A1, “Method of treating breast cancer with androgen receptor antagonists” (priority 2003, published 2005).

How the values were obtained:
Assay in all cases: Sulforhodamine B (SRB) cytotoxicity assay
Type in all cases: cell-based
DU 145 = settings: Homo sapiens
Procedure: (§1) PPC-1, LNCaP, TSU, PC-3, and DU145 were grown in PRMI-1640 medium containing 2 mM L-glutamine supplemented with 10% fetal bovine serum (FBS). Cells were maintained in a 5% CO2/95% air humidified atmosphere at 37° C.
(§2) The SRB Assay was used to determine cell number during cytotoxocity experiments. The following protocol was used: • 1. Cells were detached with 0.25% trypsin. • 2. Experimental cultures were cultured in 96-well microtiter plates (200 uL growth medium per well; 1,000-200,000 cells per well). • 3. Cultures were fixed with 50 uL 50% TCA (4° C.). (see cell fixation protocol for details). • 4. Fixed cells were stained with 50 uL 0.4% (wt/vol) SRB in 1% acetic acid for 10 minutes. • 5. SRB was removed and the cultures were quickly* rinsed 5 times with 1% acetic acid to remove unbound dye.** * quickly performing rinsing process is to prevent desorption of protein-bound SRB ** completely remove residual wash solution by sharply flicking plates over sink. • 6. Cultures were air-dried overnight until there is no visible moisture. • 7. The cellular protein-bound SRB was dissolved with 200 uL unbuffered Tris base (10 mM, pH 10.5) for 30 minutes on a rocking platform shaker. • 8. Absorbance was read at 540 nm. Fixation of Cells Attached to the Plastic Substratum
(§3) The following protocol was used for fixing cells: • a. 50 uL of 50% TCA (4° C.) were gently layered on the top of growth medium in each well to make a final TCA concentration of 10%. • b. Cultures were incubated at 4° C. for 1 hour. • c. Cultures were washed 5 times with tap water to remove TCA, growth medium, low-molecular-weight metabolites, and serum protein. • d. Plates were air-dried until there was no visible moisture.
(§4) The IC50s of I-31, I-29, S-NTBA and Compound V in different prostate cancer cell lines (DU 145, PC-3, TSU, PPC-l and LNCaP), in a breast cancer cell line (MCF-7), in other cancer cell lines ([…]) and in a control cell line (CV-1) after 1 and 4 days of incubation with the drug, are shown in Tables 2A and B.

LNCaP = settings: Homo sapiens
Procedure: as §1, §2, §3, §4

PC-3 = settings: Homo sapiens
Procedure: as §1, §2, §3, §4

PPC-1 = settings: Homo sapiens
Procedure: as §1, §2, §3, §4

TSU = settings: Homo sapiens, 96 h; drug incubation time 4 days
Procedure: as §1, §2, §3, §4

HT-29 = settings: Homo sapiens
TCCSUP = settings: Homo sapiens, TCC-SUP
MCF-7 = settings: Homo sapiens
Procedure: as §2
The following protocol was used for fixing cells: • a. 50 uL of 50% TCA (4° C.) were gently layered on the top of growth medium in each well to make a final TCA concentration of 10%. • b. Cultures were incubated at 4° C. for 1 hour. • c. […]

[1] = 24 h, drug incubation time 1 day
[2] = 96 h, drug incubation time 4 days

`C[C@@](O)(CBr)C(=O)Nc1ccc([N+](=O)[O-])c(C(F)(F)F)c1` [S-NTBA] was tested, and the IC50 (DU 145; DU-145, 24 h, drug incubation time 1 day) was 5.5 ± 0.6 µM, the IC50 (DU 145; DU-145, 96 h, drug incubation time 4 days) was 4.6 µM and the IC50 (LNCaP; [1]) was 1.6 ± 0.5 µM. For the same compound, the IC50 (LNCaP; [2]) was 1.8 µM, the IC50 (PC-3; PC-3, 24 h, drug incubation time 1 day) was 7.9 ± 0.7 µM and the IC50 (PC-3; PC-3, 96 h, drug incubation time 4 days) was 3.7 µM. For the same compound, the IC50 (PPC-1; PPC-1, 24 h, drug incubation time 1 day) was 1.7 ± 0.2 µM, the IC50 (PPC-1; PPC-1, 96 h, drug incubation time 4 days) was 2.7 µM and the IC50 (TSU) was 2.9 µM. The IC50 (HT-29; HT-29, 24 h, drug incubation time 1 day) was 19.8 ± 1 µM, the IC50 (HT-29; HT-29, 96 h, drug incubation time 4 days) was 10.8 µM and the IC50 (TCCSUP; [1]) was 9.5 ± 3.6 µM. It also gave an IC50 (TCCSUP; [2]) of 4.6 µM, an IC50 (MCF-7; MCF7, 24 h, drug incubation time 1 day) of 3.3 ± 0.6 µM and an IC50 (MCF-7; MCF7, 96 h, drug incubation time 4 days) of 3.3 ± 0.6 µM.
